Measured values taken from patent US11198731B2 (Exelixis, Inc., priority 2017, dated 2021).

Legend:
[1] = system: subjects with medullary thyroid cancer (MTC); assay: Placebo-controlled study of cabozantinib effect on QTc interval; assay type: in vivo, human
Text: A concentration-QTc relationship could not be definitively established. Changes in cardiac wave form morphology or new rhythms were not observed.

[2] = Effect of proton pump inhibitor esomeprazole on cabozantinib plasma PK; assay type: in vivo, human; conditions: healthy volunteers
[3] = system: relapsed or refractory metastatic UC; conditions: cited from earlier work
CYP3A4 [4] = target: T1, CYP3A4 (Homo sapiens, UniProt P08684); assay: Clinical pharmacology study XL184-007 with the strong CYP3A4 inhibitor ketoconazole; assay type: in vivo; design: endogenous in cells; host or cells: healthy volunteers, in vivo; conditions: concurrent ketoconazole; single dose of cabozantinib in healthy volunteers
Target sequence in this assay (P08684 whole entry): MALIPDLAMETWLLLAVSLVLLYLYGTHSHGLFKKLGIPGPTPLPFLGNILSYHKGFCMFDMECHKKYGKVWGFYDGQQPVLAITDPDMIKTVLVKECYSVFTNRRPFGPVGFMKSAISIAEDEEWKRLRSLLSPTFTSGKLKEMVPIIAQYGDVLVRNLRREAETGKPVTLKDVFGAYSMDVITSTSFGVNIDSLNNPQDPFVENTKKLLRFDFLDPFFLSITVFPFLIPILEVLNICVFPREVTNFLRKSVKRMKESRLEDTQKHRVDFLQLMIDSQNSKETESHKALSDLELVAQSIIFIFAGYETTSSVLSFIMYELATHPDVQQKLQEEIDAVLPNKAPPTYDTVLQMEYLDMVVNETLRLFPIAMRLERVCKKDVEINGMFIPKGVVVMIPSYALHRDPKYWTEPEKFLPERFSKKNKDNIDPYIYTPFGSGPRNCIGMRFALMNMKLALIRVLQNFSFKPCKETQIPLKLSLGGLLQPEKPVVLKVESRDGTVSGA

[5] = system: previously-untreated advanced RCC of intermediate- or poor-risk; conditions: cited from earlier work
[6] = Time to steady state exposure of cabozantinib; assay type: in vivo, human; conditions: following first dose
Text: Events that generally have an early onset include hypocalcemia, hypokalemia, thrombocytopenia, hypertension, PPE, abdominal pain, mucosal inflammation, constipation, diarrhea, and vomiting. Adverse events should be managed with supportive car at the earliest signs of toxicity. Dose reductions and treatment interruptions should be considered. Dose reductions are recommended for events that, if persistent, could become serious or intolerable (Table 6-3).

human plasma proteins = assay: Plasma protein binding; assay type: in vitro ADME
CYP1A1 = assay: In vitro induction of cytochrome P450 enzymes; assay type: in vitro ADME; conditions: high cabozantinib concentrations (30 μM)
[7] = system: metastatic triple-negative breast cancer; conditions: in vivo; cited from earlier work
[8] = system: murine colon carcinoma cell line (MC38-CEA); conditions: in vitro; cited from earlier work
invasive prostate cancer = conditions: through a neutrophil mediated anticancer innate immune response; cited from earlier work
P-glycoprotein = P-glycoprotein (Homo sapiens, UniProt P08183); assay: In vitro P-glycoprotein substrate and inhibition data; assay type: in vitro ADME
[9] = system: NSCLC without EGFR genetic alterations; conditions: cited from earlier work
[10] = Food effect on cabozantinib exposure; conditions: in vivo
CYP3A4 [11] = target: T1, CYP3A4; assay: In vitro CYP substrate studies; assay type: in vitro ADME
Target sequence in this assay (P08684 whole entry, species assumed): as the sequence (P08684 whole entry) above

[12] = system: advanced RET-rearranged NSCLC; conditions: cited from earlier work
[13] = system: CYP2D6, CYP2C8, CYP2C19, CYP2B6, or CYP1A2; conditions: human
[14] = Nonclinical GLP-compliant toxicology studies; assay type: in vivo
Text: The development of any new or progressive, unexplained neurological symptoms should be assessed for underlying causes.

CYP3A4 [15] = target: T1, CYP3A4; assay: Clinical pharmacology study XL184-006 with the strong CYP3A4 inducer rifampin; assay type: in vivo; design: endogenous in cells; host or cells: healthy volunteers, in vivo; conditions: concurrent rifampin; single dose of cabozantinib in healthy volunteers
Target sequence in this assay (P08684 whole entry): as above

[16] = system: advanced RCC after prior VEGFR-TKI; conditions: cited from earlier work
advanced NSCLC = conditions: cited from earlier work
[17] = system: advanced CRPC with bone metastases; conditions: cited from earlier work
cytochrome P450 enzymes = assay: In vitro induction of cytochrome P450 enzymes; assay type: in vitro ADME
MC38-CEA tumor = conditions: mouse, in vivo; cited from earlier work
CYP2C9 = CYP2C9 (Homo sapiens, UniProt P11712); assay: In vitro CYP substrate studies; assay type: in vitro ADME
[18] = Cohort 1, 42 evaluable subjects

P-glycoprotein, sequence (P08183 whole entry): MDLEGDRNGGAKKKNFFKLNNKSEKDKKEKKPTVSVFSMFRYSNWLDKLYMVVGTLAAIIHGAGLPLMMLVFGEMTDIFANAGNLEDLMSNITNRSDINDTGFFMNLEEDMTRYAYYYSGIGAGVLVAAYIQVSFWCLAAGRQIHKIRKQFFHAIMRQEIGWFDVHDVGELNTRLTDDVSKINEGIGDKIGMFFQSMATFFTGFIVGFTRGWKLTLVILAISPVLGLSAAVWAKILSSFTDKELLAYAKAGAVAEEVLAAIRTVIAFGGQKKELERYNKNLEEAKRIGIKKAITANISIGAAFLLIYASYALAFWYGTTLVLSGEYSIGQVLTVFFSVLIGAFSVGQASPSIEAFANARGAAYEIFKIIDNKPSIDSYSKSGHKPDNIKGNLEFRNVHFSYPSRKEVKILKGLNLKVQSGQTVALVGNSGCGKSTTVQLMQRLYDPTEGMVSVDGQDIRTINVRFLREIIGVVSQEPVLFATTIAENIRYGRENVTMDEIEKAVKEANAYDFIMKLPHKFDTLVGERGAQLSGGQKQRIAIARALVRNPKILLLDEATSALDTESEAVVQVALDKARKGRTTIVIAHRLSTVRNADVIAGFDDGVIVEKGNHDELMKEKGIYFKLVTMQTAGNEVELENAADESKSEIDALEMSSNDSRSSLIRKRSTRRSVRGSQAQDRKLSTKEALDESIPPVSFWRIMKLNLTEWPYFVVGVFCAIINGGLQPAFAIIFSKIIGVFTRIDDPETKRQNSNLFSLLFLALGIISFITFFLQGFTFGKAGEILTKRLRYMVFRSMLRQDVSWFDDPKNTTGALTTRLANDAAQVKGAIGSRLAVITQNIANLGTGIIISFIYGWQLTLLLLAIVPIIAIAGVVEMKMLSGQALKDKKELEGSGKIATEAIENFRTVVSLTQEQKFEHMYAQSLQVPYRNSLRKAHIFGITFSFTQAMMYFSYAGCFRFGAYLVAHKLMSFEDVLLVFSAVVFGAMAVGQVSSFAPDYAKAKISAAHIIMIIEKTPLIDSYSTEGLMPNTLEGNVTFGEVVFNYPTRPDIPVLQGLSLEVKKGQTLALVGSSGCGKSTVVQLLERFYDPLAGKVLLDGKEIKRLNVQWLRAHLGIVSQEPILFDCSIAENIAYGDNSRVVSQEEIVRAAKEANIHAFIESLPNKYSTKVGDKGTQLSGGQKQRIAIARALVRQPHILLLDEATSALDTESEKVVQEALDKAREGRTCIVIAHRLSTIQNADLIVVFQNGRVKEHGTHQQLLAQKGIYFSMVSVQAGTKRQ
CYP2C9, sequence (P11712 whole entry, species assumed): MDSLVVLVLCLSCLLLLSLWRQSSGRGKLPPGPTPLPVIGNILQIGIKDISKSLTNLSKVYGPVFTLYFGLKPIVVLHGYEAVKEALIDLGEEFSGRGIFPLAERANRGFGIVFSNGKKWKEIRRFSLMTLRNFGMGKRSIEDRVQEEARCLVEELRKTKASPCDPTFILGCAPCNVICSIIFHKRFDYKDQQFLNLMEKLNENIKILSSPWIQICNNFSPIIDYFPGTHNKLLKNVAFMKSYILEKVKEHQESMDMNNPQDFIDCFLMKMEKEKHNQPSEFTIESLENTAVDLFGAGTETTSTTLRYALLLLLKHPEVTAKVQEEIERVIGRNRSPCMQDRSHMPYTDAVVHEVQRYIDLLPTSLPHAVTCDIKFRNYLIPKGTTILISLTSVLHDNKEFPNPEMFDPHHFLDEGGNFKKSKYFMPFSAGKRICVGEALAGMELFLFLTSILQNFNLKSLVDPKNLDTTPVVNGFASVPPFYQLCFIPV

## COc1cc2nccc(Oc3ccc(NC(=O)C4(C(=O)Nc5ccc(F)cc5)CC4)cc3)c2cc1OC [cabozantinib, N-(4-{[6,7-bis(methyloxy)quinolin-4-yl]oxy}phenyl)-N′-(4-fluorophenyl)cyclopropane-1,1-dicarboxamide]
[1]; cabozantinib 140 mg qd
  Subjects with a QTcF >500 ms: No cabozantinib-treated subjects
[1]; cabozantinib 140 mg qd orally, 4 weeks after initiating treatment
  Mean increase in QTcF: 10 to 15 ms
[1]; larger safety database (approximately 5000 subjects exposed)
  Events of torsades de pointes: no events of torsades de pointes
[2]
  Effect of esomeprazole on cabozantinib plasma PK: no clinically-relevant effect
[3]; [18]
  Number of PRs: 7
  Number of complete responses (CR): 1
  ORR: 19.1%
[3]; Cohort 1
  Median OS: 8.0 months
  Median PFS: 3.7 months
[3]; all cohorts (n=67)
  Cabozantinib-related Grade 4 AE: hypomagnesemia: 3%
  Cabozantinib-related Grade 4 AE: lipase increased: 1%
  Grade 3 AE related to cabozantinib: hypertension: 7%
  Grade 3 AE related to cabozantinib: hypophosphatemia: 6%
[3]; all cohorts (n=67), most frequent (5% incidence)
  Grade 3 AE related to cabozantinib: fatigue: 9%
[3]; in vivo
  Immunosuppressive Treg lymphocytes following treatment: reductions
CYP3A4 [4]
  Increase in cabozantinib exposure (AUC values): 38%
[5]; 16 subjects in each arm
  Discontinued study treatment due to an AE: 20%
[5]; % of subjects
  Adverse events of ≥Grade 3 regardless of causality: 68%
[5]; compared with sunitinib
  Reduction of the rate of disease progression or death: 34%
[5]; in vivo
  Median OS: 26.6 months
  Median PFS per IRC: 8.6 months
  Median PFS per investigator: 8.2 months
  ≥Grade 3 AE: PPE: 8%
  ≥Grade 3 AE: diarrhea: 10%
  ≥Grade 3 AE: fatigue: 6%
  ≥Grade 3 AE: hematological events: 2%
  ≥Grade 3 AE: hypertension: 28%
[6]
  Time to steady state exposure: approximately 2 weeks
Human plasma proteins
  Bound to human plasma proteins: 99.7%
CYP1A1
  Induction of CYP1A1: possible induction
[7]
  CD14+ monocytes: persistent decrease
  Fraction of circulating CD3+ T lymphocytes: persistent increase
[8]
  Sensitivity of tumor cells to T-cell-mediated killing: greater sensitivity
  Tumor-cell expression of major histocompatibility complex (MHC) class 1 antigen: increased tumor-cell expression
Invasive prostate cancer
  Effect on invasive prostate cancer: rapid elimination of invasive prostate cancer
P-glycoprotein
  Inhibition of P-glycoprotein transport activity: potential to inhibit
  P-glycoprotein substrate status: unlikely to be a substrate
[9]; in vivo
  Estimated median OS: 9.2 months
  ORR: 11%
[9]; second or third line treatment
  PFS: 4.3 months
[9]; single-agent cabozantinib
  Grade 3 or 4 AE: diarrhea: 8%
  Grade 3 or 4 AE: fatigue: 15%
  Grade 3 or 4 AE: hypertension: 25%
  Grade 3 or 4 AE: oral mucositis: 10%
  Grade 3 or 4 AE: thromboembolic event: 8%
[10]
  Increase of exposure levels by food: 57%
CYP3A4 [11]
  CYP3A4 substrate status: CYP3A4 substrate
[12]; RET-rearranged NSCLC
  Overall response rate (ORR): 28%
[12]; in vivo
  Grade 3 treatment-related AE: decreased platelet count: 8%
  Grade 3 treatment-related AE: hypophosphataemia: 8%
  Grade 3 treatment-related AE: increased ALT: 8%
  Grade 3 treatment-related AE: increased AST: 8%
  Grade 3 treatment-related AE: lipase elevation: 15%
  Median OS: 9.9 months
  Median PFS: 5.5 months
  Treatment-related deaths: No treatment-related deaths
[13]
  CYP2D6, CYP2C8, CYP2C19, CYP2B6, CYP1A2 substrate status: not a CYP2D6, CYP2C8, CYP2C19, CYP2B6, or CYP1A2 substrate
[14]
  Risk of adverse neurological effects: minimal risk of adverse neurological effects
CYP3A4 [15]
  Reduction in cabozantinib exposure (AUC values): approximately 77%
[16]; % of subjects
  Dose reductions from 60 mg to 40 mg: 60%
  Further dose reductions from 40 mg to 20 mg: 20%
[16]; incidence in each arm
  Treatment discontinuations due to AEs: 10%
Advanced NSCLC; 60 subjects, single agent
  ORR: 10%
Advanced NSCLC; % of subjects
  Stable disease as best response: 48.3%
Advanced NSCLC; heavily pre-pretreated unselected NSCLC, early phase clinical trials
  Objective response rate (ORR): approximately 10%
Advanced NSCLC; in vivo
  Median PFS: 4.0 months
[17]; at Week 12
  Proportion of subjects with a bone scan response (BSR) per IRC: 42%
[17]; exploratory endpoint
  Median PFS per investigator: 5.6 months
[17]; in vivo
  Median duration of BSR: 5.8 months
  Median duration of OS (Kaplan-Meier): 11.0 months
Cytochrome P450 enzymes
  Induction of cytochrome P450 enzymes: unlikely to Induce
MC38-CEA tumor
  Peripheral CD8+ T-cell counts: increased
  Regulatory T-cells (Tregs) and myeloid-derived suppressor cells (MDSCs): decreased
  Treg suppressor activity: decreased
CYP2C9
  CYP2C9 substrate status: weak substrate
